Laboratory results as given in ChEMBL document CHEMBL1201862, “PubChem BioAssay data set” (2004).
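Cells were grown in 96-well plates and exposed to each compound for 48 hours at five concentrations; endpoints were interpolated linearly between bracketing concentrations, or set to the highest concentration if not reached. GI50 = concentration required for 50% inhibition of growth.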 Activity calls are given as the source filed them. No stated cut-off is given here; in the data, active = GI50 up to about 1.1 µM and inactive = higher.

Assays:
Test in all cases: NCI anticancer screen, dose series, 48 h
SW-620 = tested on: SW-620
EKVX = tested on: EKVX
HCT-116 = tested on: HCT-116
MDA-MB-231 = tested on: MDA-MB-231
IGROV-1 = tested on: IGROV-1
NCI-H23 = tested on: NCI-H23
DU-145 = tested on: DU-145
M14 = tested on: M14
COLO 205 = tested on: COLO 205
SK-MEL-5 = tested on: SK-MEL-5
SNB-75 = tested on: SNB-75
Hs-578T = tested on: Hs-578T
HL-60 = tested on: HL-60
TK-10 = tested on: TK-10
UO-31 = tested on: UO-31
SF-295 = tested on: SF-295
UACC-257 = tested on: UACC-257
SR = tested on: SR
U-251 = tested on: U-251
UACC-62 = tested on: UACC-62

Compound | GI50 (SW-620) | GI50 (EKVX) | GI50 (HCT-116) | GI50 (MDA-MB-231) | GI50 (IGROV-1) | GI50 (NCI-H23) | GI50 (DU-145) | GI50 (M14) | GI50 (COLO 205) | GI50 (SK-MEL-5) | GI50 (SNB-75) | GI50 (Hs-578T) | GI50 (HL-60) | GI50 (TK-10) | GI50 (UO-31) | GI50 (SF-295) | GI50 (UACC-257) | GI50 (SR) | GI50 (U-251) | GI50 (UACC-62)
CO/C1=C\C(C)=C\C(C)C(O)C(C)C/C(C)=C/C=C/C(OC)C(C(C)C(O)C(C)C2(O)CC(O)C(C)C(C(C)C)O2)OC1=O (stereo not given) | 0.471 nM (active) | 56.6 nM (active) | 0.382 nM (active) | 0.382 nM (active) | 2.23 nM (active) | 2.67 nM (active) | 0.873 nM (active) | 0.369 nM (active) | 3.43 nM (active) | 0.396 nM (active) | 8.57 nM (active) | 11 nM (active) | 0.134 nM (active) | 14500 nM (inactive) | 2.78 nM (active) | 1.63 nM (active) | 6.34 nM (active) | 0.0908 nM (active) | 7.06 nM (active) | 2.8 nM (active)
C/C(=N\Nc1ncnc2ccccc12)c1ccccn1 | < 26.7 nM (active) | < 16.9 nM (active) | < 11 nM (active) | < 19.6 nM (active) | < 16.2 nM (active) | < 24.4 nM (active) | 71.8 nM (active) | 20 nM (active) | < 10 nM (active) | 23.7 nM (active) | 1810 nM (inactive) | 200 nM (active) | < 10 nM (active) | 157 nM (active) | 51.6 nM (active) | 80.3 nM (active) | < 16.1 nM (active) | 31.7 nM (active) | < 21.4 nM (active) | 94.8 nM (active)
